In paper PMC10726354, “Design, Synthesis, and Biological Evaluation of Small-Molecule-Based Radioligands with Improved Pharmacokinetic Properties for Imaging of Programmed Death Ligand 1” (Journal of Medicinal Chemistry, 2023):
Several values for one entry are separate records, joined by “and”; a condition that tells them apart may be missing. Equal values may be shown once.

Key:
[1] = system: PC3 PD-L1-overexpressing tumor; experiment: Small-animal PET, uptake in PD-L1-overexpressing tumor; conditions: for SUVmax PC3 PD-L1 overexpressing tumor: tracer only; for SUVmax PC3 PD-L1 overexpressing tumor +block: blocker i.v. before tracer: Cu-1 100 nmol 1, Cu-2 100 nmol 2, Cu-3 1000 nmol 4, Cu-4 500 nmol 4, Cu-6 250 nmol 1 (~5 min prior), Cu-5 100 nmol 5 (~30 min prior)
Method: (§1) Changes are reported as % change of the SUVmax of the PD-L1 expressing over the respective value of the mock tumor. Similarly, the effect of blocking is reported as % change of the SUVmax of the animal injected with cold compound over that of the animal that received tracer only.
(§2) Animal experiments were performed in accordance with the guidelines of the German Regulations for Animal Welfare, approved by the Saxonian Ethical Committee for Animal Experiments (reference number DD24.1-5131/449/49). Male athymic NMRI-nude mice (Rj: NMRI-Foxn1^nu/nu, Janvier Laboratories, Le Genest-Saint-Isle, France) between 8 and 22 weeks of age were used. Under general anesthesia, [∼10% desflurane (Baxter, Deerfield, IL, USA) in 30 vol % oxygen + air] and warming, the animals were subcutaneously injected with 3–5 × 10^6 PC3-PD-L1 and PC3-mock cells [in 50 μL PBS +50 μL Matrigel (Corning, Glendale, USA)] into the right and left thigh, respectively. Tumor growth was monitored three times a week by caliper measurements, and mice with tumor sizes above 7 mm were included in the experiments.
(§3) For PET studies, general anesthesia was induced as described above. PET and X-ray computed tomography (CT) were performed in a dedicated small animal nanoScan PET/CT scanner, with four animals imaged simultaneously (Mediso, Budapest, Hungary). CT images were employed for attenuation correction and anatomical referencing. Animals received three individual scans corresponding to 0–2 h (dynamic) and 4.5 and 24 h (static) postinjection.
(§4) PD-L1 radiotracer candidates (in 300 μL sterile 0.9% NaCl/HEPES buffer, pH 6–7, between 7 and 12 MBq, molar activities > 12 GBq/μmol) were delivered over 30 s i.v. (lateral tail vein) and PET acquisition started simultaneously. For blocking condition, a defined quantity of compound (the same unlabeled compound, one from the same series or BMS-1166) was diluted in sterile saline and injected i.v. approximately 5 min prior to the radiotracer. Animals not subjected to blocking were injected with vehicle at the same time.
(§5) Three-dimensional list mode data were binned using the 400–600 keV energy window and sorted into 36 time frames (15 × 10 s, 5 × 30 s, 5 × 60 s, 4 × 300 s, 3 × 600 s, 4 × 900 s). Time frames were reconstructed using the Tera-TomoTM 3D algorithm applying a voxel size of 0.4 mm and corrections for decay, scatter, and attenuation.
(§6) Three-dimensional volumes of interest were delineated applying fixed thresholding at 35% of the measured maximum intensity. Standardized uptake values (SUV = [MBq detected activity/mL tissue]/[MBq injected activity/g body weight], […]) were determined in selected volumes of interest, among these PD-L1 and mock tumors.
(§7) 14. In vivo: PET- SUV data
(§8) Standardized uptake values (SUVmax)
(§9) Supplementary table 1: In vivo standardized uptake values (SUVmax ± standard deviation) of 64Cu-labeled third series compounds [64Cu]Cu-1-6 at 1.5 (1–2), 4.5 (4–5) and 24.5 (24–25) hours
(§10) post injection (p.i.). Compounds used for blocking are described for each tracer and were intravenously injected in sterile saline at stated time before the radiotracer. Animals designated for
(§11) tracer-only received matched type and volume of vehicle at the same time.

[2] = Radiotracer production data: stability of the product to in vivo experiments; format: physicochemical
[3] = system: PC3 mock tumor; experiment: Small-animal PET, uptake in mock tumor; conditions: for SUVmax PC3 mock tumor: tracer only; for SUVmax PC3 mock tumor +block: blocker i.v. before tracer: Cu-1 100 nmol 1, Cu-2 100 nmol 2, Cu-3 1000 nmol 4, Cu-4 500 nmol 4, Cu-6 250 nmol 1 (~5 min prior), Cu-5 100 nmol 5 (~30 min prior)
Method: as §1, §2, §3, §4, §5, §6, §7, §8, §9, §10, §11

[4] = Proteolytic stability in human serum, radio-HPLC; format: in vitro ADME; conditions: 37 °C, 1 h
Method: Potential degradation of the ^64Cu-labeled radiotracers by proteolysis was investigated by incubation in human serum at 37 °C for up to 48 h. At three different time points (1, 24, and 48 h), a sample was withdrawn, and serum proteins were precipitated. The radio-HPLC chromatograms of all ^64Cu-labeled radiotracers (Figure S111A–D, system D) show a major peak at ∼6.4–6.7 min indicating the radiotracers. After 1 h, the radiotracers [^64Cu]Cu-3–6 are 94.1, 98.3, 94.0, and 96.3% intact, respectively.
Similar to PBS stability studies, the mixture containing the radiolabeled compound was diluted 1:10 with human serum. The solution was incubated at 37 °C with shaking at 300 rpm. At each time point (1, 24, and 48 h), an aliquot was withdrawn and added to a double amount of “supersol” (water containing 20% v/v EtOH, 5% v/v 5 mM aqueous EDTA, 0.5% v/v Triton X-100, 0.1% m/v saponin, 0.05% v/v 0.5 mM aqueous o-phenanthroline) to precipitate serum proteins. The suspension was cooled on ice for 5 min and then centrifugated for 5 min at 12,000g. A small amount of the supernatant was analyzed by radio-HPLC (PerkinElmer, Massachusetts, United States system D, Supporting Information). Evaluation and graphical plotting were performed with OriginPro 9.0.

[5] = target: T1, PD-L1 (Homo sapiens, UniProt Q9NZQ7); experiment: Real-time radioligand binding (LigandTracer) on PC3 PD-L1 cells; conditions: for Kd: real-time binding
T1 construct: expressed in transfected cells; host or cells: PC3 cells (human prostate carcinoma), stably transduced
Method: Real-time radioligand binding using the ligand tracer platform was performed, similar to our previously reported tracer candidates. As we aimed at reducing the albumin binding of the herein presented compounds, we performed measurements in the presence or absence of a mouse physiological concentration of BSA (2.5 g/dL).
For real-time binding to assess kinetics (association rate constant ka and dissociation rate constant kd) and dissociation constant (KD), LigandTracer (Yellow, Ridgeview Instruments AB, Sweden) was employed. Approximately 1.2 × 10^6 cells (in 3 mL medium) were seeded to one side of a Petri dish (Nunc) 1 day prior to experiments as described before.[45] Binding was then performed at room temperature (using CO2-independent medium, Gibco #18045088, Thermo Fisher Germany) with or without BSA (2.5%). First, association was determined by incubation with two concentrations (10 and 40 nM, 90 min each) of the ^64Cu-labeled PD-L1 ligands. Dissociation was then assessed by replacement with fresh medium for at least 2 h. Data were acquired in decay-corrected counts per second (CPS), and binding data were then evaluated using TraceDrawer (1.9.2, Ridgeview Instruments AB, Sweden). Traces were inspected for spikes and irregularities and then normalized to their own baseline (=0%) and highest value (=100%). Data were then fitted using a one-to-one interaction, accounting for the bulk effect.

[6] = 1–2 h (1.5 h) p.i., blocker: Cu-3 1000 nmol 4, Cu-4 500/1000 nmol 4, Cu-5 100 nmol 5, Cu-6 250 nmol BMS-1166
[7] = 4–5 h (4.5 h) p.i., blocker: Cu-3 1000 nmol 4, Cu-4 500/1000 nmol 4, Cu-5 100 nmol 5, Cu-6 250 nmol BMS-1166
[8] = 24–25 h (24.5 h) p.i., blocker: Cu-1, Cu-2 100 nmol unlabeled compound, Cu-3 1000 nmol 4, Cu-4 500/1000 nmol 4, Cu-5 100 nmol 5, Cu-6 250 nmol BMS-1166
[9] = medium only (no BSA), n = 2, mean ± S.D.
[10] = medium only (no BSA), n = 2, mean ± S.D., room temperature

T1 sequence (Q9NZQ7 19-290): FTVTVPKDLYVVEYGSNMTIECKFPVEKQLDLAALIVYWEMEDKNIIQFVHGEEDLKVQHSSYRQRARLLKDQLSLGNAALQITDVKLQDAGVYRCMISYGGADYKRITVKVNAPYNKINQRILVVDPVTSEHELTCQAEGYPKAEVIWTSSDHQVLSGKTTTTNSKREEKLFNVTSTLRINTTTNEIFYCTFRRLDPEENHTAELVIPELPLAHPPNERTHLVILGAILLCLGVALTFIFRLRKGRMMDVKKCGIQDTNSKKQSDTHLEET

SMILES	blocking effect: % change of SUVmax in PD-L1 tumor vs tracer-only [1, 6]	% change of SUVmax of the PD-L1 expressing tumor over the mock tumor ([1]; 1–2 h p.i.)	SUVmax PC3 PD-L1 overexpressing tumor ([1]; 1.5 (1–2) hours p.i.)	SUVmax PC3 PD-L1 overexpressing tumor +block ([1]; 1.5 (1–2) hours p.i.)	blocking effect: % change of SUVmax in PD-L1 tumor vs tracer-only [1, 7]	% change of SUVmax of the PD-L1 expressing tumor over the mock tumor ([1]; 4–5 h p.i.)	SUVmax PC3 PD-L1 overexpressing tumor ([1]; 4.5 (4–5) hours p.i.)	SUVmax PC3 PD-L1 overexpressing tumor +block ([1]; 4.5 (4–5) hours p.i.)	blocking effect: % change of SUVmax in PD-L1 tumor vs tracer-only [1, 8]	% change of SUVmax of the PD-L1 expressing tumor over the mock tumor ([1]; 24–25 h p.i.)	SUVmax PC3 PD-L1 overexpressing tumor ([1]; 24.5 (24–25) hours p.i.)	SUVmax PC3 PD-L1 overexpressing tumor +block ([1]; 24.5 (24–25) hours p.i.)	Stability of the product to in vivo experiments [2]	SUVmax PC3 mock tumor ([3]; 1.5 (1–2) hours p.i.)	SUVmax PC3 mock tumor +block ([3]; 1.5 (1–2) hours p.i.)	SUVmax PC3 mock tumor ([3]; 4.5 (4–5) hours p.i.)	SUVmax PC3 mock tumor +block ([3]; 4.5 (4–5) hours p.i.)	SUVmax PC3 mock tumor ([3]; 24.5 (24–25) hours p.i.)	SUVmax PC3 mock tumor +block ([3]; 24.5 (24–25) hours p.i.)	intact radiotracer in human serum after 1 h [4]	further results
Cc1c(COc2cc(OCc3cncc(S(C)(=O)=O)c3)c(CN[C@@H](CS(=O)(=O)O)C(=O)NCCP(=O)(O)O)cc2Cl)cccc1-c1cccc(OCc2cn(CCCN3CCN(C(=O)[C@H](CS(=O)(=O)O)NC(=O)CC[C@H](C(=O)O)N4CCN(CC(=O)O)CCN(CC(=O)O)CC4)CC3)nn2)c1C.[64Cu+2] [[^64Cu]Cu-5]	−46%	306%	3.25	1.75 ± 0.35	−6% and −5%	+59%	1.75	1.65 ± 0.15	+29%	+14%	1.2	1.55 ± 0.05	> 99%	0.80 ± 0.10	0.75 ± 0.05	1.1 ± 0.1	0.85 ± 0.05	1.05 ± 0.65	1.6 ± 0.00	94.0%	SUVmax PC3 PD-L1 overexpressing tumor ([1]; 1.5 (1–2) hours p.i., listed as [64Cu]Cu-5): 3.25 ± 0.25; SUVmax PC3 PD-L1 overexpressing tumor ([1]; 4.5 (4–5) hours p.i., listed as [64Cu]Cu-5): 1.75 ± 0.15; SUVmax PC3 PD-L1 overexpressing tumor ([1]; 24.5 (24–25) hours p.i., listed as [64Cu]Cu-5): 1.2 ± 0.8; fold change of real-time binding affinity in presence vs absence of BSA ([5]; in either direction): ≤ 2 fold; Bmax [normalized (%)] ([5]; medium + 2.5% BSA, n = 1): 219%; ka (association rate constant) ([5]; medium + 2.5% BSA, n = 1): 1130 M/s; Bmax [normalized (%)] [5, 9]: 446 ± 274%; ka (association rate constant) [5, 10]: (1.14 ± 0.60) × 10^3 (M s)^−1; Kd ([5]; medium + 2.5% BSA, n = 1): 100 nM; Kd [5, 9]: 110 ± 53 nM
Cc1c(COc2cc(OCc3cncc(S(C)(=O)=O)c3)c(CN[C@@H](CS(=O)(=O)O)C(=O)NCCP(=O)(O)O)cc2Cl)cccc1-c1cccc(OCc2cn(CCCN3CCN(C(=O)CC[C@H](C(=O)O)N4CCN(CC(=O)O)CCN(CC(=O)O)CC4)CC3)nn2)c1C.[64Cu+2] [[^64Cu]Cu-4]	−57%	146%	1.97 ± 0.23	0.85 ± 0.05	−13% and −12%	166%	1.2 ± 0.4	1.05 ± 0.35	−45%	60%	2.0 ± 0.1	1.1 ± 0.1	> 99%	0.8 ± 0.10	0.65 ± 0.05	0.45 ± 0.05	0.6 ± 0.2	1.25 ± 0.15	0.8 ± 0.3	98.3%	Bmax [normalized (%)] ([5]; medium + 2.5% BSA, n = 1): 883%; ka (association rate constant) ([5]; medium + 2.5% BSA, n = 1): 230 M/s; Bmax [normalized (%)] [5, 9]: 846 ± 451%; ka (association rate constant) [5, 10]: (0.56 ± 0.35) × 10^3 (M s)^−1; Kd ([5]; medium + 2.5% BSA, n = 1): 744 nM; Kd [5, 9]: 201 ± 149 nM
